One may read the half-life as the time in which the quantity being followed falls by half. Read a low half-life as fast loss.

The structures appear in SMILES notation. Where a SMILES comes first, the peptide text is derived from it.

System in one series: not listed separately
The series can be described thus: Simulated Intestinal Fluid (SIF) Stability Assay. It is filed as in vitro ADME. The conditions noted are these: pig, simulated intestinal fluid (SIF) with 1% porcine pancreatin, pH 6.5, porcine pancreatin, 37° C.; dimers, Table 7. In a few lines: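 Percent peptide remaining over time was measured by LC-MS/MS as the peak-area ratio to internal standard, and a first-order decay fit gave half-life. Digests contained 22 μM peptide and 1% pancreatin in pH 6.5 FaSSIF buffer at 37° C. Aliquots were quenched in organic solvent with formic acid.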
Compound `CC(C)C[C@@H]1NC(=O)[C@H]([C@@H](C)O)NC(=O)[C@H](CC(=O)O)NC(=O)[C@H](CO)NC(=O)[C@H](CCCNC(=N)N)N(C)C(=O)C(C)SC[C@@H](C(=O)N[C@@H](Cc2c[nH]c3ccccc23)C(=O)N[C@H](CCCCN)C(N)=O)NC1=O` (single isomer, unassigned) [compound 144] showed a half-life at 22 μM below 20 min.

Another series has as its target T1, rh integrin α4β7 (Homo sapiens, UniProt P13612+P26010).
T1 construct: purchased R&D Systems 5397-A30
T1 sequence (P13612 34-977 limits assumed): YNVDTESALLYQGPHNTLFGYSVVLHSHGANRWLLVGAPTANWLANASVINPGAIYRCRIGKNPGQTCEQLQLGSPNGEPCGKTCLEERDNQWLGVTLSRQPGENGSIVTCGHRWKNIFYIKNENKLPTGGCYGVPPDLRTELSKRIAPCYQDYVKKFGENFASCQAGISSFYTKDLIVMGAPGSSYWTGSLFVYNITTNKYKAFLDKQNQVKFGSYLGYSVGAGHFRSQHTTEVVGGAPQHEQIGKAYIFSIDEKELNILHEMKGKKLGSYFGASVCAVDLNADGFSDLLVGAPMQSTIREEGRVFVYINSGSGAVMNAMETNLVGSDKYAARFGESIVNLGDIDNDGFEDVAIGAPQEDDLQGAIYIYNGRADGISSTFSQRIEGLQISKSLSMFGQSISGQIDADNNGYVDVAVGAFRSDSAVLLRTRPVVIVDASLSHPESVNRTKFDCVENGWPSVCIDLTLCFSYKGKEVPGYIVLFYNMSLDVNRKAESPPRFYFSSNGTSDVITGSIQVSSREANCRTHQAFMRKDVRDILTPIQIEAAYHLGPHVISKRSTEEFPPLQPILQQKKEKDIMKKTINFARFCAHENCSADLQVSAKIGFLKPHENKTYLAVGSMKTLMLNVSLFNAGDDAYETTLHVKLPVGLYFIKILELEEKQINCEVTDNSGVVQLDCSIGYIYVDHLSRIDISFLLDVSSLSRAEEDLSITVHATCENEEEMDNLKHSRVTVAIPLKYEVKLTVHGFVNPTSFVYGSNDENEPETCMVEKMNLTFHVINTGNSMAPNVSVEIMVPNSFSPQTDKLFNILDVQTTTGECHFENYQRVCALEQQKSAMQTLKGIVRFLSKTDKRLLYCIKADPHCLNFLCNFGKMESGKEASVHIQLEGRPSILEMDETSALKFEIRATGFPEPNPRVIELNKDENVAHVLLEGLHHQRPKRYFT
T1 sequence (P26010 20-723 limits assumed): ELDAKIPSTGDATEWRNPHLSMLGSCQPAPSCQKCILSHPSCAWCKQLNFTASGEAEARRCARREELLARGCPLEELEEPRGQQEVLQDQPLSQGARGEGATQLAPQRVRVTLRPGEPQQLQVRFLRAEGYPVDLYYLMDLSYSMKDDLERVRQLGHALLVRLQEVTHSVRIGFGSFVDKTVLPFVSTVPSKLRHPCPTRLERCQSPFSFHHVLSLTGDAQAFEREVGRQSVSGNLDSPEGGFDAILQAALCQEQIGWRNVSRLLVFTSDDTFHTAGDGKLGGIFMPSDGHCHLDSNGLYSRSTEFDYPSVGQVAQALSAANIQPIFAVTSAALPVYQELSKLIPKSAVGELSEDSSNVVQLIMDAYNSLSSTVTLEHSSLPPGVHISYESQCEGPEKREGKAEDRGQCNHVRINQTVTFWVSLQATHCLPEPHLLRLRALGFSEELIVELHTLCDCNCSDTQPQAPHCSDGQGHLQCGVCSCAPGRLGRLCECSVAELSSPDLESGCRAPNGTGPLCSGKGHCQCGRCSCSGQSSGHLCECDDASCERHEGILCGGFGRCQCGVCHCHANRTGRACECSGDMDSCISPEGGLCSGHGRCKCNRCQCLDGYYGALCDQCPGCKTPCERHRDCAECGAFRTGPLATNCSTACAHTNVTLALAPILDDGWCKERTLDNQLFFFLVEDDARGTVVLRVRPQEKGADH
The series can be described thus: α4β7-MAdCAM Competition ELISA. The class given is binding. The conditions noted are these: thioether monomer peptides, Table 6; read-out: ELISA A4B7. In short, it runs like this: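 Recombinant human α4β7 captured on nickel-coated plates, then incubated 1 h at room temperature with serially diluted peptides (final top 10 μM) and 10 nM final MAdCAM-1 in Tris pH 7.6 buffer with 1 mM MnCl2 or MgCl2. Bound MAdCAM-1 detected with anti-human IgG1-HRP and TMB, absorbance at 450 nm.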
As for `CC(C)C[C@@H]1NC(=O)[C@H]([C@@H](C)O)NC(=O)[C@H](CC(=O)O)NC(=O)[C@H](CO)NC(=O)[C@H](CCCNC(=N)N)N(C)C(=O)c2ccccc2CSC(C)(C)[C@@H](C(=O)N[C@@H](Cc2c[nH]c3ccccc23)C(=O)N[C@H](CCC(=O)O)C(=O)N[C@@H](CO)C(N)=O)NC1=O` [compound 100] (HELM PEPTIDE1{[meR].S.D.T.L.[Pen].W.[dE].S.[am]}|CHEM1{[O=C(c1ccccc1C[*:2])[*:1]]}$PEPTIDE1,CHEM1,1:R1-1:R1|PEPTIDE1,CHEM1,6:R3-1:R2$$$V2.0), the IC50 was below 0.025 µM.
Take `CC(C)C[C@@H]1NC(=O)[C@H]([C@@H](C)O)NC(=O)[C@H](CC(=O)O)NC(=O)[C@H](CO)NC(=O)[C@H](CCCNC(=N)N)N(C)C(=O)c2ccccc2CSC(C)(C)[C@@H](C(=O)N[C@@H](Cc2c[nH]c3ccccc23)C(=O)N[C@H](CCC(=O)O)C(=O)N[C@@H](Cc2ccccc2)C(N)=O)NC1=O` [compound 101] (HELM PEPTIDE1{[meR].S.D.T.L.[Pen].W.[dE].F.[am]}|CHEM1{[O=C(c1ccccc1C[*:2])[*:1]]}$PEPTIDE1,CHEM1,1:R1-1:R1|PEPTIDE1,CHEM1,6:R3-1:R2$$$V2.0): the IC50 is below 0.025 µM.
For `CC(C)C[C@@H]1NC(=O)[C@H]([C@@H](C)O)NC(=O)[C@H](CC(=O)O)NC(=O)[C@H](CO)NC(=O)[C@H](CCCNC(=N)N)N(C)C(=O)c2ccccc2CSC(C)(C)[C@@H](C(=O)N[C@@H](Cc2c[nH]c3ccccc23)C(=O)N[C@H](CCC(=O)O)C(=O)N[C@@H](Cc2c[nH]cn2)C(N)=O)NC1=O` [compound 102] (HELM PEPTIDE1{[meR].S.D.T.L.[Pen].W.[dE].H.[am]}|CHEM1{[O=C(c1ccccc1C[*:2])[*:1]]}$PEPTIDE1,CHEM1,1:R1-1:R1|PEPTIDE1,CHEM1,6:R3-1:R2$$$V2.0), the IC50 was below 0.025 µM.
Take `CC(C)C[C@@H]1NC(=O)[C@H]([C@@H](C)O)NC(=O)[C@H](CC(=O)O)NC(=O)[C@H](CO)NC(=O)[C@H](CCCNC(=N)N)N(C)C(=O)c2ccccc2CSC(C)(C)[C@@H](C(=O)N[C@@H](Cc2c[nH]c3ccccc23)C(=O)N[C@H](CCC(=O)O)C(=O)N[C@@H](Cc2ccc(O)cc2)C(N)=O)NC1=O` [compound 104] (HELM PEPTIDE1{[meR].S.D.T.L.[Pen].W.[dE].Y.[am]}|CHEM1{[O=C(c1ccccc1C[*:2])[*:1]]}$PEPTIDE1,CHEM1,1:R1-1:R1|PEPTIDE1,CHEM1,6:R3-1:R2$$$V2.0): the IC50 was below 0.025 µM.
`CC(C)C[C@@H]1NC(=O)[C@H]([C@@H](C)O)NC(=O)[C@H](CC(=O)O)NC(=O)[C@H](CO)NC(=O)[C@H](CCCNC(=N)N)N(C)C(=O)c2ccccc2CSC(C)(C)[C@@H](C(=O)N[C@@H](Cc2c[nH]c3ccccc23)C(=O)N[C@H](CCC(=O)O)C(=O)N[C@H](CO)C(N)=O)NC1=O` [compound 106] (HELM PEPTIDE1{[meR].S.D.T.L.[Pen].W.[dE].[dS].[am]}|CHEM1{[O=C(c1ccccc1C[*:2])[*:1]]}$PEPTIDE1,CHEM1,1:R1-1:R1|PEPTIDE1,CHEM1,6:R3-1:R2$$$V2.0): the IC50 was below 0.025 µM.
In the case of `CC(C)C[C@@H]1NC(=O)[C@H]([C@@H](C)O)NC(=O)[C@H](CC(=O)O)NC(=O)[C@H](CO)NC(=O)[C@H](CCCNC(=N)N)N(C)C(=O)c2ccccc2CSC(C)(C)[C@@H](C(=O)N[C@@H](Cc2c[nH]c3ccccc23)C(=O)N[C@H](CCC(=O)O)C(=O)N[C@H](Cc2ccccc2)C(N)=O)NC1=O` [compound 107] (HELM PEPTIDE1{[meR].S.D.T.L.[Pen].W.[dE].[dF].[am]}|CHEM1{[O=C(c1ccccc1C[*:2])[*:1]]}$PEPTIDE1,CHEM1,1:R1-1:R1|PEPTIDE1,CHEM1,6:R3-1:R2$$$V2.0), the IC50 is below 0.025 µM.
Consider `CC(C)C[C@@H]1NC(=O)[C@H]([C@@H](C)O)NC(=O)[C@H](CC(=O)O)NC(=O)[C@H](CO)NC(=O)[C@H](CCCNC(=N)N)N(C)C(=O)c2ccccc2CSC(C)(C)[C@@H](C(=O)N[C@@H](Cc2c[nH]c3ccccc23)C(=O)N[C@H](CCC(=O)O)C(=O)N[C@H](CCC(=O)O)C(N)=O)NC1=O` [compound 108] (HELM PEPTIDE1{[meR].S.D.T.L.[Pen].W.[dE].[dE].[am]}|CHEM1{[O=C(c1ccccc1C[*:2])[*:1]]}$PEPTIDE1,CHEM1,1:R1-1:R1|PEPTIDE1,CHEM1,6:R3-1:R2$$$V2.0), for which the IC50 is below 0.025 µM.
As for `CC(C)C[C@@H]1NC(=O)[C@H]([C@@H](C)O)NC(=O)[C@H](CC(=O)O)NC(=O)[C@H](CO)NC(=O)[C@H](CCCNC(=N)N)N(C)C(=O)c2ccccc2CSC(C)(C)[C@@H](C(=O)N[C@@H](Cc2c[nH]c3ccccc23)C(=O)N[C@H](CCC(=O)O)C(=O)N[C@H](Cc2ccc(O)cc2)C(N)=O)NC1=O` [compound 110] (HELM PEPTIDE1{[meR].S.D.T.L.[Pen].W.[dE].[dY].[am]}|CHEM1{[O=C(c1ccccc1C[*:2])[*:1]]}$PEPTIDE1,CHEM1,1:R1-1:R1|PEPTIDE1,CHEM1,6:R3-1:R2$$$V2.0), the IC50 is below 0.025 µM.
Take `CC(C)C[C@@H]1NC(=O)[C@H]([C@@H](C)O)NC(=O)[C@H](CC(=O)O)NC(=O)[C@H](CO)NC(=O)[C@H](CCCNC(=N)N)N(C)C(=O)c2ccccc2CSC(C)(C)[C@@H](C(=O)N[C@@H](Cc2c[nH]c3ccccc23)C(=O)N[C@H](CCC(=O)O)C(=O)N[C@@H](CCC(=O)O)C(N)=O)NC1=O` [compound 113] (HELM PEPTIDE1{[meR].S.D.T.L.[Pen].W.[dE].E.[am]}|CHEM1{[O=C(c1ccccc1C[*:2])[*:1]]}$PEPTIDE1,CHEM1,1:R1-1:R1|PEPTIDE1,CHEM1,6:R3-1:R2$$$V2.0): the IC50 was below 0.025 µM.
For the compound `CC(C)C[C@@H]1NC(=O)[C@H]([C@@H](C)O)NC(=O)[C@H](CC(=O)O)NC(=O)[C@H](CO)NC(=O)[C@H](CCCNC(=N)N)N(C)C(=O)c2ccccc2CSC(C)(C)[C@@H](C(=O)N[C@@H](Cc2ccc3ccccc3c2)C(N)=O)NC1=O` [compound 116] (HELM PEPTIDE1{[meR].S.D.T.L.[Pen].[O=C([C@H](Cc1ccc2ccccc2c1)N[*:1])[*:2]].[am]}|CHEM1{[O=C(c1ccccc1C[*:2])[*:1]]}$PEPTIDE1,CHEM1,1:R1-1:R1|PEPTIDE1,CHEM1,6:R3-1:R2$$$V2.0), the IC50 was below 0.025 µM.

Still in this series, the particulars now being: thioether peptide dimers, Table 7; read-out: ELISA A4B7.
In the case of `CC(C)C[C@@H]1NC(=O)[C@H]([C@@H](C)O)NC(=O)[C@H](CC(=O)O)NC(=O)[C@H](CO)NC(=O)[C@H](CCCNC(=N)N)N(C)C(=O)C(C)SC[C@@H](C(=O)N[C@@H](Cc2c[nH]c3ccccc23)C(=O)N[C@H](CCCCN)C(N)=O)NC1=O` (single isomer, unassigned) [compound 144], the IC50 was below 0.025 µM.
On the same count and under the same terms, in the case of `CC(C)C[C@@H]1NC(=O)[C@H]([C@@H](C)O)NC(=O)[C@H](CC(=O)O)NC(=O)[C@H](CO)NC(=O)[C@H](CCCNC(=N)N)N(C)C(=O)CSC[C@@H](C(=O)N[C@@H](Cc2c[nH]c3ccccc23)C(=O)N[C@H](CCCCNC(=O)COCC(=O)NCCCC[C@@H](NC(=O)[C@H](Cc2c[nH]c3ccccc23)NC(=O)[C@@H]2CSCC(=O)N(C)[C@@H](CCCNC(=N)N)C(=O)N[C@@H](CO)C(=O)N[C@@H](CC(=O)O)C(=O)N[C@@H]([C@@H](C)O)C(=O)N[C@@H](CC(C)C)C(=O)N2)C(N)=O)C(N)=O)NC1=O` [compound 143] it was below 0.025 µM.

Source of the values: patent publication US20260217767A1, “NOVEL A4B7 THIOETHER PEPTIDE DIMER ANTAGONISTS” (Protagonist Therapeutics, Inc., priority 2014, published 2026).
